Earlier results on 1 compound are cited in patent US20140316534A1, “STENT” (Photocure ASA, priority 2011, published 2014).

This series relates to dysplastic tissue in Barrett's esophagus.
Setting [1] is: systemic application, higher doses of 20 mg/kg and 30 mg/kg.

In the case of `NCC(=O)CCC(=O)O` [5-ALA, 5-amino-4-oxo-pentanoic acid], the side effects entry (systemic application of 20 mg/kg or more) is recorded as “increasing side effects at high dosages”. Also, under setting [1], the “sensitivity for detection of dysplastic tissue” value is recorded as “increase the sensitivity” and the “specificity (rate of false positive fluorescence)” value is listed as “poor”.
